We go through 4 molecules from article PMC10092294 (Biomaterials, 2023).

One experiment concerns the target T1, human Topo I (Homo sapiens, UniProt P11387).
T1 sequence (P11387 1-765): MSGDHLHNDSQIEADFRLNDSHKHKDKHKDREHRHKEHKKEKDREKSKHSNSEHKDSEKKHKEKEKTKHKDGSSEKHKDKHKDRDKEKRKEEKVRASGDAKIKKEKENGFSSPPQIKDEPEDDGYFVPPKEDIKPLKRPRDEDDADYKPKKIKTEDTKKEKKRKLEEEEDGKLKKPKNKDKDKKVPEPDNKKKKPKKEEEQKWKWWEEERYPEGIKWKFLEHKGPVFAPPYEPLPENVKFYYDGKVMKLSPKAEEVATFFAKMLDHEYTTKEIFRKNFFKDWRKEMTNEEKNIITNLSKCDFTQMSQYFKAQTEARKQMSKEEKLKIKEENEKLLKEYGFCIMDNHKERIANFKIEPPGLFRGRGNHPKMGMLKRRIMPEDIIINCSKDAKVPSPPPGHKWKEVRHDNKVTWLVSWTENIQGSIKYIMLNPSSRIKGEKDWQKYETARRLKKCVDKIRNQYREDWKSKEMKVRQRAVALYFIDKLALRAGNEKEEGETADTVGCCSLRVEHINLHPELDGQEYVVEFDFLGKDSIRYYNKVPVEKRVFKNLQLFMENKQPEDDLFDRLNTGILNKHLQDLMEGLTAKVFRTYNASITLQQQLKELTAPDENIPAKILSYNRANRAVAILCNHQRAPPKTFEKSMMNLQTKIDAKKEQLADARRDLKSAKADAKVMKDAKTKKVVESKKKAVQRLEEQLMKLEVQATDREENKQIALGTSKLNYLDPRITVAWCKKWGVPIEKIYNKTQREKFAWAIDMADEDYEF
The experiment in a line: Topoisomerase I inhibition assay. The settings on record: for Topo I inhibition: final drug concentration 100 μM. The format is biochemical.

For experiment [1], the system named is Hec50co LOFp53 cells. The experiment in a line: Cell cycle assay. The format is cell-based, human. The settings on record: 10 nM PTX alone, 24 hours.
For the next experiment, the system named is caspase-9. The experiment in a line: Caspase-9 activity in Hec50co LOFp53 cells. It counts as cell-based, human. The settings on record: 24 hours.
For experiment [2], the system named is Hec50co GOFp53 cells. Description: MTS cell viability assay, Hec50co GOFp53. It counts as cell-based. The settings on record: Homo sapiens, 72 h, read-out: cell viability. (Tetrazolium assays rely on reduction of a dye to a coloured formazan, in cell work by metabolically active cells.)
The subject of experiment [3] is Hec50co LOFp53 cells. Description: MTS cell viability assay, Hec50co LOFp53. It counts as cell-based. Conditions: Homo sapiens, 72 h, read-out: cell viability.
The next experiment concerns KLE GOFp53 cells. Description: MTS cell viability assay, KLE GOFp53. Conditions: Homo sapiens, 72 h, read-out: cell viability. The format is cell-based.
The next experiment addresses tubulin (Sus scrofa, UniProt P02554). The experiment in a line: Fluorescence-based tubulin polymerization assay. It counts as biochemical. The settings on record: 3 μM.
Another experiment deals with human Topo IIα (Homo sapiens, UniProt P11388). The experiment in a line: Topoisomerase II inhibition assay. The format is biochemical. The settings on record: read-out: Topo II inhibition.
For the next experiment, the system named is caspase-3. Description: Caspase-3 activity in Hec50co LOFp53 cells. The format is cell-based, human. Conditions: 5 nM or 10 nM PTX alone, 72 hours.
Experiment [4] has as its system Hec50co GOFp53 cells. Description: Cell cycle assay. The format is cell-based, human. The settings on record: 10 nM PTX alone, 24 hours.
Experiment [5] deals with Hec50co LOFp53 xenograft tumors. Description: In vivo antitumor efficacy, human endometrial cancer xenograft model. Also noted: species or system athymic Nu/Nu mice. Conditions: five doses. In general terms: A xenograft is tissue or cells of one species grown in another, often human tumour cells in immunodeficient mice.
For experiment [6], the system named is four different endometrial cancer cell lines. The format is cell-based, human. Conditions: 72 hours.
The test system of another experiment is microtubule assembly. The settings on record: cited from earlier work.

human Topo IIα, sequence (P11388 whole entry): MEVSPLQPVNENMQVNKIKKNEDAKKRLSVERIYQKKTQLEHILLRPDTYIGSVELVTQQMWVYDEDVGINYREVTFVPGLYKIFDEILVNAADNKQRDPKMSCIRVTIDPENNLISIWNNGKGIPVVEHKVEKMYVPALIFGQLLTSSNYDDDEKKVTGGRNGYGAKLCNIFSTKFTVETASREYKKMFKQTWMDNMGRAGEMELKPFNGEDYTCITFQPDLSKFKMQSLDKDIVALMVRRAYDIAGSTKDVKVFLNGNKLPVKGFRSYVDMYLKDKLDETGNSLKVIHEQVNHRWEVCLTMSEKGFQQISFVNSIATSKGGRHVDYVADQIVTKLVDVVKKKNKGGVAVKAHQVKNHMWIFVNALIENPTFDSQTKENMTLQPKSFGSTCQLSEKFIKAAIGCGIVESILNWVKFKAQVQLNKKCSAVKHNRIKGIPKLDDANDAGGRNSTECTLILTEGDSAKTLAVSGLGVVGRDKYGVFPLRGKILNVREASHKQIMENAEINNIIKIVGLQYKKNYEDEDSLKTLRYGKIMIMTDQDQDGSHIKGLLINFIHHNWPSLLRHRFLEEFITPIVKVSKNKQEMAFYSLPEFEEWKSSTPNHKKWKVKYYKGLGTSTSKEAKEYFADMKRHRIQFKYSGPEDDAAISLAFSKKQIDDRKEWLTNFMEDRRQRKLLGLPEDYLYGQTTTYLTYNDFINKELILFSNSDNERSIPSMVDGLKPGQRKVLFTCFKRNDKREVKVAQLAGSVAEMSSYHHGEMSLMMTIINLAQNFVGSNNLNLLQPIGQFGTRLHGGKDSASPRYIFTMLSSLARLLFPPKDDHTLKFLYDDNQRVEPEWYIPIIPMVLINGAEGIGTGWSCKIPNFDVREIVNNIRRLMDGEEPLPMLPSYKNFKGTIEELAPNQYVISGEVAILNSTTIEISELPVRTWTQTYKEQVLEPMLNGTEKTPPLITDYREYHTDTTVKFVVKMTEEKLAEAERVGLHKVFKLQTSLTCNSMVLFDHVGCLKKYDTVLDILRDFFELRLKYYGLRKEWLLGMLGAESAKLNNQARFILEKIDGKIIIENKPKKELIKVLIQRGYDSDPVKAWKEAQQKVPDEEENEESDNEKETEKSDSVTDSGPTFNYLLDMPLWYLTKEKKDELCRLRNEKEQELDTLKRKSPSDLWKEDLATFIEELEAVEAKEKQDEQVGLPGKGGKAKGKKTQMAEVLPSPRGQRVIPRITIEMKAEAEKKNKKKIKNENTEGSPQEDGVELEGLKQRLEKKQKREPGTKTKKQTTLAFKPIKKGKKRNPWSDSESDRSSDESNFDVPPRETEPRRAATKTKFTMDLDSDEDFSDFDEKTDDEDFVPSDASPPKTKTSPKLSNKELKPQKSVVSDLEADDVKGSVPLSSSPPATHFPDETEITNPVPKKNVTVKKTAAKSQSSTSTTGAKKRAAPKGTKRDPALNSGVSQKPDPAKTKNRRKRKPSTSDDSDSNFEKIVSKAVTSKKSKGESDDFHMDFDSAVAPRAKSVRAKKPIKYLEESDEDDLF
tubulin, sequence (P02554 whole entry): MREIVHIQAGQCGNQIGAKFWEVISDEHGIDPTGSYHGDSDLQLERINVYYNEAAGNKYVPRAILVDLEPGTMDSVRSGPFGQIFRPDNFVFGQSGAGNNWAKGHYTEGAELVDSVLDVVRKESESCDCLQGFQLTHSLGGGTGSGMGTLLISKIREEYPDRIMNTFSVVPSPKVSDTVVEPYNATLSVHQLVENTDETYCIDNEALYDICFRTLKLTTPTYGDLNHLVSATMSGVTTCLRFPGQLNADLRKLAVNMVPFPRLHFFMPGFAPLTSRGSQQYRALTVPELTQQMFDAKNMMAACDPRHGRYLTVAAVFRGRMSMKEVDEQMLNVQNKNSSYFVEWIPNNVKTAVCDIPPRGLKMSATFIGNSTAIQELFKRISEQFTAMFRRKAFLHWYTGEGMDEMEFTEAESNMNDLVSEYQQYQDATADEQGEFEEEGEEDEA
tubulin, sequence (P02550 whole entry partner): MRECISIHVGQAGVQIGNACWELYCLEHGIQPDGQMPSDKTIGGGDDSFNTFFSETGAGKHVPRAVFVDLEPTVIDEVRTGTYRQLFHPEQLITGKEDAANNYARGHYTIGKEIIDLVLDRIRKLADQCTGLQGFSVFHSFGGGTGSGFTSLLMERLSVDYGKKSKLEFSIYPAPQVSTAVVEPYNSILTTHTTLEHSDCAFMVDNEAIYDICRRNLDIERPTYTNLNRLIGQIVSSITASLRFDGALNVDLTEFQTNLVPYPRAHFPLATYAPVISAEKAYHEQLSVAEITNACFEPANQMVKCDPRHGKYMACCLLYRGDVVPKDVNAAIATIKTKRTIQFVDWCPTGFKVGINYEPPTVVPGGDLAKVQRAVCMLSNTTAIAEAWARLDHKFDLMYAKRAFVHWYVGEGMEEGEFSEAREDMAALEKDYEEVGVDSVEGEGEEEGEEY

Broadly, the viability is the share of living cells, or the viability signal relative to a control. Usually inhibition stands for the share of the control response that was lost under treatment. For the molecule `CC(=O)O[C@H]1C(=O)[C@@]2(C)[C@H]([C@H](OC(=O)c3ccccc3)[C@]3(O)C[C@H](OC(=O)[C@H](O)[C@@H](NC(=O)c4ccccc4)c4ccccc4)C(C)=C1C3(C)C)[C@]1(OC(C)=O)CO[C@@H]1C[C@@H]2O` [PTX, paclitaxel], the “Topo I inhibition” value on human Topo I is “no activity”. The “cells in the G2/M phase” value worked out at 43.7 ± 0.5% with Hec50co LOFp53 cells [1] and 57.3 ± 1.1% with Hec50co GOFp53 cells [4]. Besides, the “caspase-9 activity vs untreated” value is given as “did not show a significant difference” with caspase-9 (5 nM PTX) and “significant increase” in the experiment with caspase-9 (10 nM PTX). The viability at 0.01 µM with Hec50co GOFp53 cells [2] worked out at 17.9 ± 1.4%; in the experiment with Hec50co LOFp53 cells [3], 31.2 ± 4.1%; in the experiment with KLE GOFp53 cells it was 63.5 ± 0.6%. Further, the “onset time of tubulin polymerization” value on tubulin was “approximately 5 minutes”. Also, the inhibition at 100 µM on human Topo IIα was determined as 8.3 ± 4.2%. Also, the “caspase-3 activity vs untreated” value in the experiment with caspase-3 is “significantly higher”. Further, in experiment [5] (5 mg/kg PTX SC peritumoral), the “average tumor volumes vs PBS group” value is recorded as “smaller than those in control mice injected with PBS, albeit not significantly”. Further, in [5] (5 mg/kg PTX ± 5 mg/kg CIP2b SC peritumoral), the “average weight of tumors vs PBS group, day 53” value is recorded as “not significantly different”.

As to `CC[C@@]1(O)C(=O)OCc2c1cc1n(c2=O)Cc2cc3ccccc3nc2-1` [CAM, camptothecin], the inhibition at 100 µM on human Topo I (read-out: Topo I inhibition) was 52.6 ± 1.3%.

Turning to `O=C(O)c1cn(C2CC2)c2cc(N3CCNCC3)c(F)cc2c1=O` [CIP, ciprofloxacin], the “Topo I inhibition” value at human Topo I is listed as “no activity”. Also, in experiment [6], the “benefit of CIP alone or in combination with PTX in comparison to PTX alone” value is listed as “no benefits”. Besides, the inhibition at 100 µM at human Topo IIα was determined as 62.3 ± 17.1%. The “impact on microtubule assembly in cells” value in the experiment with microtubule assembly is listed as “does not impact”.

With `COc1cc([C@@H]2c3cc4c(cc3[C@@H](O[C@@H]3O[C@@H]5CO[C@@H](C)O[C@H]5[C@H](O)[C@H]3O)[C@H]3COC(=O)[C@H]23)OCO4)cc(OC)c1O` [ETO, etoposide], the inhibition at 100 µM at human Topo IIα stood at 96.3 ± 0.8%.
